Measurements: patent publication US20200330420A1, “LONG CHAIN FATTY ACID FORMULATIONS AND THEIR USE IN INHIBITING SALMONELLA INFECTION” (priority 2019, published 2020)

Legend:
hilA expression = test: Luciferase assay, hilA::luxCDABE reporter fusion; type: cell-based
Description: (§1) Strains. Salmonella enterica subsp. enterica serovar Typhimurium 14028s, and mutants thereof, were used throughout. Deletion mutants were constructed as previously described (K. A. Datsenko et al., PNAS USA, 97(12), 6640-6645, 2000). Briefly, PCR fragments of kanamycin and chloramphenicol resistance genes containing 40 base pair homology extensions flanking the gene of interest were generated using pKD4 and pKD3 plasmids. The PCR fragments were transformed into a strain expressing λ Red recombinase. Loss of the gene of interest was confirmed using PCR. Unmarked mutants were generated using a helper plasmid pCP20 carrying a gene encoding the FLP recombinase. Marked deletions and constructs were transferred using bacteriophage P22 transduction (N. L. Sternberg et al., Methods Enzymol., 204, 18-43, 1991).
(§2) Luciferase assays. Strains carrying luxCDABE reporter fusions were grown overnight in LB with the necessary antibiotics. Overnight cultures were diluted 100-fold into M9 minimal medium with glucose, antibiotics and 1 mM nonanoic acid (added to repress SPI invasion gene expression to eliminate background luminescence), and grown overnight. The cultures were washed three times with PBS. Bacteria were inoculated at a starting OD600 of 0.02 into 150 μL of LB containing 100 mM MOPS pH 6.7, the necessary antibiotics and compounds to be tested, in a sealed black-walled 96 well plate. Luminescence was measured every 30 minutes for 24 hours using a Biotek Synergy™ H1 microplate reader.

sopB expression = test: Luciferase assay, sopB::luxCDABE reporter fusion; type: cell-based; conditions: ΔhilD mutant, rtsA under tetracycline-inducible promoter; 20 μM; FIG. 4A
Description: as §1
as §2, with “Bacteria were inoculated at a starting OD600 of 0.02 into 150 μL of LB containing 100 mM MOPS pH 6.7, the necessary antibiotics and compounds to be tested, in a sealed black-walled 96 well plate.” left out

HilC = HilC (Salmonella typhimurium, UniProt P0CL09); test: Electrophoretic mobility shift assay, HilC binding to hilA promoter DNA; conditions: FIG. 7
Description: (§3) Electrophoretic mobility shift assays (EMSAs). EMSAs were performed as previously described (Y. A. Golubeva et al., M Bio, 7(1), 2016). Briefly, 10 nM of hilA promoter DNA was mixed with 150 μM HilD, HilC or RtsA in a binding buffer containing 20 mM KCl, 1% glycerol, 1 mM DTT, 0.04 mM EDTA, 0.05% Tergitol™ NP-40 and 20 mM HEPES, pH 7.3. cis-2-hexadecenoic acid was tested at concentrations of […] Binding was performed at room temperature for 20 minutes. Samples were separated on 6% Novex® TBE DNA retardation gels, and DNA was stained using SYBR® green (Invitrogen).

RtsA = test: Electrophoretic mobility shift assay, RtsA binding to hilA promoter DNA; parameters: species or system Salmonella; conditions: FIG. 7
Description: as §3

HilD [1] = target: T1, HilD (Salmonella typhimurium, UniProt P0CL08); test: Electrophoretic mobility shift assay, HilD binding to hilA promoter DNA; parameters: 6xHis-NusA (followed by an HRV 3C protease site) (N, cleaved yes); made in house; host or cells: E. coli BL21(DE3), vector pCAV4; conditions: FIG. 7
HilD [2] = target: T1, HilD; test: HilD half-life assay (western blot of HilD-3xFLAG); type: cell-based; parameters: expressed in transfected cells; host or cells: Salmonella Typhimurium 14028s derivative carrying PtetRA-hilD-3xFLAG, with Lon present or absent; conditions: Lon mutant (absence of Lon); 20 μM; FIG. 5A
[3] = chain length comparison, FIG. 1E
[4] = hilD only: ΔrtsA ΔhilC, hilD under tetracycline-inducible promoter, 20 μM, FIG. 4C
[5] = 10, 25, 50 and 75 μM fatty acid

T1 sequence (P0CL08 whole entry): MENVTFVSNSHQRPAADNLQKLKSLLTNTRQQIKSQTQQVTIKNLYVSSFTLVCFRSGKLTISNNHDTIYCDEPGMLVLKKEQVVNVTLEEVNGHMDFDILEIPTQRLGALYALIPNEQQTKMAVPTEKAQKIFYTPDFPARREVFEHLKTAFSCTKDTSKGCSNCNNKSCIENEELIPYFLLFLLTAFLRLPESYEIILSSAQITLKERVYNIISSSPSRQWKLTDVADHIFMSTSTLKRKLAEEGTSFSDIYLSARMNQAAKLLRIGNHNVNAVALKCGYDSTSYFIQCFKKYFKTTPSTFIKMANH
HilC, sequence (P0CL09 whole entry): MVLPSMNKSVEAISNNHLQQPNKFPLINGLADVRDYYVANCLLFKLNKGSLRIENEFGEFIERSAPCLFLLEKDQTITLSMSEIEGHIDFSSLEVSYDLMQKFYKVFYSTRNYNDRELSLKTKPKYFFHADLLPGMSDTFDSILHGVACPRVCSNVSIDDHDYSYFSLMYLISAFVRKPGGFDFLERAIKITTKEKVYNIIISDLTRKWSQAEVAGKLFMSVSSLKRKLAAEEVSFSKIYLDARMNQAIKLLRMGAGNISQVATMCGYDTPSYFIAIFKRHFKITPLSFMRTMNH

## CCCCCCCCCCCCC/C=C\C(=O)O [c2-HDA, Cis-2-hexadecenoic acid]
hilA expression; 1 μM, FIG. 1B
  repression of hilA expression: 80 fold
hilA expression; [3]
  reduction of hilA expression: 159 fold
hilA expression; hilC only (tetracycline-inducible), null hilD and rtsA, FIG. 6B
  reduction of hilA expression: 20 fold
hilA expression; hilD mutant, FIG. 4A
  repression of hilA in a hilD mutant: modest repression
hilA expression; [4]
  repression of hilA expression: 78 fold
hilA expression; rtsA only (tetracycline-inducible), null hilD and hilC, FIG. 6A
  reduction of hilA expression: 13 fold
hilA expression; Δlon mutation, 20 μM, FIG. 5B
  repression of hilA expression: continued to repress hilA expression
sopB expression
  repression of sopB expression: 11 fold
HilC; 100 μM fatty acid
  binding of HilC to the hilA promoter: prevented binding to the hilA promoter
HilC; [5]
  binding of HilC to the hilA promoter: partially
RtsA; 100 μM fatty acid
  binding of RtsA to the hilA promoter: prevented binding to the hilA promoter
RtsA; [5]
  binding of RtsA to the hilA promoter: partially
HilD [1]; 20 μM fatty acid, 10 nM hilA promoter DNA
  binding of HilD to the hilA promoter: completely inhibited from binding hilA promoter DNA
HilD [1]; 1, 2, 5 and 10 μM fatty acid
  binding of HilD to the hilA promoter: partially
HilD [2]
  effect on HilD stability: no effect on its stability

## CCCCCCC/C=C\C(=O)O [cis-2-decenoic acid]
hilA expression; [3]
  reduction of hilA expression: 28%

## CCCCCCCCC/C=C\C(=O)O [cis-2-dodecenoic acid]
hilA expression; [3]
  reduction of hilA expression: 3 fold

## CCCCCCCCCCCCCCCCC/C=C\C(=O)OC [cis-2-eicosenoic acid methyl ester, reference compound]
hilA expression; 40 μM methyl ester, FIG. 2B
  repression of hilA expression: not to significantly repress hilA expression

## CCCCCCCCCCCCCCCCC/C=C\C(=O)O [cis-2-eicosenoic acid]
hilA expression; [3]
  reduction of hilA expression: 10 fold
hilA expression; [4]
  repression of hilA expression: 3 fold

## CCCCCCCCCCCCC/C=C\C(=O)OC [cis-2-hexadecenoic acid methyl ester, reference compound]
hilA expression; 20 μM methyl ester, FIG. 2A
  repression of hilA expression: not to significantly repress hilA expression

## CCCCCCCC/C=C\CCCCCCCC(=O)O [oleic acid, cis-9-octadecenoic acid, reference compound]
hilA expression; [4]
  repression of hilA expression: 1.2 fold

## CCCCCCCCCCCCC/C=C/C(=O)O [trans-2-hexadecenoic acid, reference compound]
hilA expression; FIG. 1A, 20 μM fatty acids per legend
  less potent in repressing hilA than the cis-isomer: 31 fold
